One molecule from article PMC3441706 (PLoS ONE, 2012) can be followed below.

In one experiment the test system is SU-DHL-6. Description: Cytotoxicity assay (cell counting). In kind it is cell-based. The conditions noted are these: Homo sapiens; SU-DHL-6, B-cell lymphoma; 72 hours incubation. The procedure:
(§1) Cells were plated in 24-well plates. After cells were allowed to recover for 24 hours, NVX-412 was added in fresh growth medium. The maximal DMSO concentration reached in all experiments was below 0.01%. Respective control experiments at the highest DMSO concentration were performed in order to rule out DMSO-induced effects. After 72 hours incubation the proportion of viable cells was determined by cell counting with a Z1 Coulter Particle Counter (Beckman Coulter, Vienna, AUT), a ViCell XR (Beckman Coulter, Vienna, AUT) or a CASY® Cell Counter (Schärfe, Reutlingen, Germany). Cytotoxicity was expressed as IC50 values that were derived from the corresponding dose–response curves.

For another experiment, the system named is Raji. Description: Cytotoxicity assay (cell counting). In kind it is cell-based. The conditions noted are these: Homo sapiens, Burkitt lymphoma, 72 hours incubation. The procedure:
as §1

The test system of a further experiment is KG-1a. The experiment can be described thus: Cytotoxicity assay (cell counting). Type of experiment: cell-based. As to conditions: Homo sapiens, AML, 72 hours incubation. The procedure: as §1
Another experiment deals with HeLa. The experiment can be described thus: Cytotoxicity assay (cell counting). In kind it is cell-based. The conditions noted are these: Homo sapiens, cervix carcinoma, 72 hours incubation. The procedure:
as §1

The subject of a further experiment is MCF-7. Description: Cytotoxicity assay (cell counting). In kind it is cell-based. The conditions noted are these: Homo sapiens, MCF7; MCF-7, breast adenocarcinoma; 72 hours incubation. The procedure:
as §1

Another experiment has as its system HepG2. Description: Cytotoxicity assay (cell counting). Type of experiment: cell-based. As to conditions: Homo sapiens; HepG2, liver carcinoma; 72 hours incubation. The procedure:
as §1

For the next experiment, the system named is OSW. Description: Cytotoxicity assay (cell counting). As to conditions: Canis lupus familiaris, canine T-cell lymphoma, 72 hours incubation. In kind it is cell-based. The procedure:
as §1

Another experiment concerns p-p53 (Ser15). The experiment can be described thus: Western Blot for p-p53 (Ser15) in HCT116 cells. In kind it is cell-based, human. As to conditions: HCT116, 24 and 48 hours. On the procedure:
Treated cells were directly lysed in NP40 cell lysis buffer (Invitrogen, Grand Island, NY, USA) containing protease and phosphatase inhibitors. Protein concentrations were measured colorimetrically (DC Protein Assay, Bio-Rad Laboratories, Hercules, CA, USA). Proteins were separated by SDS - polyacrylamide gel electrophoresis and blotted onto nitrocellulose membranes (Whatman™, Vienna, AUT). Equal loading was checked by Ponceau S (SERVA, Heidelberg, GER) staining. Bound antigen was visualized with the enhanced chemiluminescence detection system (Roche Diagnostics, Indianapolis, IN, USA). These procedures were performed according to the manufacturer’s protocols. Antibodies specific for the following proteins of interest were used: pChk1 (Ser296), p-p53 (Ser15), β-Tubulin and GAPDH were obtained from Cell Signaling Technology (Danvers, MA, USA) at 1∶1000 dilution. Secondary antibodies were peroxidase-tagged goat anti-rabbit or anti-mouse IgGs (Cell Signaling Technology) (1∶2000).
(Immunoblotting shows a protein as a band on a membrane.)

What is called IC50 is the concentration needed to halve the response being measured. Lower therefore signals inhibition by little substance.

As to `O=C(NNc1nc2cc(F)ccc2n2cccc12)c1cnccn1` [NVX-412, Pyrazine-2-carboxylic acid N’- (7-fluoro-pyrrolo[1,2-α]quinoxalin-4-yl)-hydrazide-oxalic acid co-crystal], the IC50 in the experiment on SU-DHL-6 amounted to 320 nM; in the experiment on Raji, 60 nM; in the experiment on KG-1a, 145 nM; in the experiment on HeLa, 210 nM; in the experiment with MCF-7, 150 nM; in the experiment on HepG2, 290 nM. Also, half-maximal inhibition in the experiment on OSW (IC50) was put at 103 nM. The “Phosphorylated p53 (Western Blot)” value in the experiment on p-p53 (Ser15) (below or at the IC50) is listed as “negative for phosphorylated p53”; with p-p53 (Ser15) (concentrations above the IC50), “strong induction”.
